Reference: ChEMBL document CHEMBL5291721, “A preclinical secondary pharmacology resource illuminates target-adverse drug reaction associations of marketed drugs” (Nat Commun, 2023)

Assays:
[1] = target: T1, Alpha-2A adrenergic receptor (Homo sapiens, UniProt P08913); format: functional, cell-based
T1 sequence (P08913 whole entry): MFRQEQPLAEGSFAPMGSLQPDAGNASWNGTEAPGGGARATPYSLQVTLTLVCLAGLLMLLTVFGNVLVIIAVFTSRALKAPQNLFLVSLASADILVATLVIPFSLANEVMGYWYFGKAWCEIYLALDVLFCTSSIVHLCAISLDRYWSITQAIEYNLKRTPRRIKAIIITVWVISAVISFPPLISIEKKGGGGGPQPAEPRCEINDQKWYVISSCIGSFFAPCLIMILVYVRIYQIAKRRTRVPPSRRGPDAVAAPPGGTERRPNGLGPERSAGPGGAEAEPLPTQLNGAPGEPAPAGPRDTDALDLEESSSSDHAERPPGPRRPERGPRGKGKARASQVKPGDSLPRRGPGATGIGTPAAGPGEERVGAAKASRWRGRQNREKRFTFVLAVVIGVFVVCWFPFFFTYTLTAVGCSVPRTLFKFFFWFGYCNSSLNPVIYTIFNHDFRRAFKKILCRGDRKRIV

[2] = target: Beta-1 adrenergic receptor (Homo sapiens, UniProt P08588); format: functional
[3] = target: T2, Cholecystokinin receptor type A (Homo sapiens, UniProt P32238)
T2 sequence (P32238 whole entry): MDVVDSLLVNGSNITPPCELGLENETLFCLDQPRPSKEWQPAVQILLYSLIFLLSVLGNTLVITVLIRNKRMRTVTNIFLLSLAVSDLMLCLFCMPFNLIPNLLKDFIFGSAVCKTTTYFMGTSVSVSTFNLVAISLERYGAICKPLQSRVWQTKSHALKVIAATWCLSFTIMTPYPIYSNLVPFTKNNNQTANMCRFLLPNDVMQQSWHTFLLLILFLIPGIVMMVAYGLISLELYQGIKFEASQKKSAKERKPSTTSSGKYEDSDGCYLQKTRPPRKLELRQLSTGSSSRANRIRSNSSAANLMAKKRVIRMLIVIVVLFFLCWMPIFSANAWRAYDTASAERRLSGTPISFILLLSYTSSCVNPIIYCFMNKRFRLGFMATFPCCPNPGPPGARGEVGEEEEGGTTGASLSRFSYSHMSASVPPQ

[4] = target: T3, Glucocorticoid receptor (Homo sapiens, UniProt P04150)
T3 sequence (P04150 whole entry): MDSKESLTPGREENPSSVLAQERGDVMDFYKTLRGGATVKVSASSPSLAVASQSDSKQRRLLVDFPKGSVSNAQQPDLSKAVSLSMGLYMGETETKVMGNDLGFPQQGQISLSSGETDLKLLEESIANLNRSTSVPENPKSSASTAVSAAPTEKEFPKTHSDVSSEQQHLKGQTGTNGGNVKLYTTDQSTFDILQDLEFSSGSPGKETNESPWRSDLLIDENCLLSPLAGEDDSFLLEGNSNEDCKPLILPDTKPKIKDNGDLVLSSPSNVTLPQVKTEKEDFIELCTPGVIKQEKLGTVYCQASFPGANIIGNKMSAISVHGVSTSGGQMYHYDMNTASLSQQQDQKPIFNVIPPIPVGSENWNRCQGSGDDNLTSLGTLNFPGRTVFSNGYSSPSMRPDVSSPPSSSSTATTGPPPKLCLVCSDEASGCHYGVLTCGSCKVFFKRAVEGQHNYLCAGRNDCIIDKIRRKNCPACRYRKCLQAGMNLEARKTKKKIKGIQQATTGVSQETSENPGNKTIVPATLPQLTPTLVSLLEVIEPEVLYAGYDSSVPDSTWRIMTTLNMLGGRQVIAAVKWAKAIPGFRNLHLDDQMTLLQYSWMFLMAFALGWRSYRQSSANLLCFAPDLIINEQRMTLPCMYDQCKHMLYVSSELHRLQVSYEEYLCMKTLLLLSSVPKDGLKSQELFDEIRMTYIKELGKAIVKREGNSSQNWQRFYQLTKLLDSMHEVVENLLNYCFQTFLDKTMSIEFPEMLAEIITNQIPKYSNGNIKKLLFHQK

[5] = target: cGMP-inhibited 3',5'-cyclic phosphodiesterase 3A (Homo sapiens, UniProt Q14432); format: functional
[6] = target: T4, Amine oxidase [flavin-containing] A (Homo sapiens, UniProt P21397); format: functional
T4 sequence (P21397 whole entry): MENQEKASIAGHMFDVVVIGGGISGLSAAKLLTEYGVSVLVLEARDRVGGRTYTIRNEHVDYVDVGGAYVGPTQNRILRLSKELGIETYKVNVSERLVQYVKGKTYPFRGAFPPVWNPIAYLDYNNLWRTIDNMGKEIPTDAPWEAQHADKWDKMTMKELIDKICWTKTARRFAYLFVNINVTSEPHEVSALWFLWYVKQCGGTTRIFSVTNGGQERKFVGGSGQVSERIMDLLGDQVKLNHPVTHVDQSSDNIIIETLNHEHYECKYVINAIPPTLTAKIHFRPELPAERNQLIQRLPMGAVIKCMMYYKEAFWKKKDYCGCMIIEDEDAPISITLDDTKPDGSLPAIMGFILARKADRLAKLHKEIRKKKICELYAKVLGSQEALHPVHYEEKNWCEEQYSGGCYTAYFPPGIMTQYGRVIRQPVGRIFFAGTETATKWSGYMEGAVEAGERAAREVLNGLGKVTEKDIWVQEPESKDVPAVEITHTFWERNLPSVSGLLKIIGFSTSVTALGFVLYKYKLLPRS

[7] = target: T5, Equilibrative nucleoside transporter 1 (Homo sapiens, UniProt Q99808)
T5 sequence (Q99808 whole entry): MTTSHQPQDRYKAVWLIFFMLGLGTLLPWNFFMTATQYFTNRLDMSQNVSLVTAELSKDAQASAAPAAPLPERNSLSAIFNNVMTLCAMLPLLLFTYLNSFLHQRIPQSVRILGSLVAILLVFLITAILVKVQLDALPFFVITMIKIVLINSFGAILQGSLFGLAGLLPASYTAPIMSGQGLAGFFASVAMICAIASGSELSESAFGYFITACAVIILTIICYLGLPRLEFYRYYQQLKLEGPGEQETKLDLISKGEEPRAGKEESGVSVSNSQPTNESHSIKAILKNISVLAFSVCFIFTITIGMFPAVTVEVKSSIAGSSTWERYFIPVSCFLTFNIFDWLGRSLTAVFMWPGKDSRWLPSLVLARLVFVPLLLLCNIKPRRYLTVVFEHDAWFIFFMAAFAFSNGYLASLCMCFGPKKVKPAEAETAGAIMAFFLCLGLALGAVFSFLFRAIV
Also: assay procedure not described here.

Chain of cGMP-inhibited 3',5'-cyclic phosphodiesterase 3A (Q14432 whole entry): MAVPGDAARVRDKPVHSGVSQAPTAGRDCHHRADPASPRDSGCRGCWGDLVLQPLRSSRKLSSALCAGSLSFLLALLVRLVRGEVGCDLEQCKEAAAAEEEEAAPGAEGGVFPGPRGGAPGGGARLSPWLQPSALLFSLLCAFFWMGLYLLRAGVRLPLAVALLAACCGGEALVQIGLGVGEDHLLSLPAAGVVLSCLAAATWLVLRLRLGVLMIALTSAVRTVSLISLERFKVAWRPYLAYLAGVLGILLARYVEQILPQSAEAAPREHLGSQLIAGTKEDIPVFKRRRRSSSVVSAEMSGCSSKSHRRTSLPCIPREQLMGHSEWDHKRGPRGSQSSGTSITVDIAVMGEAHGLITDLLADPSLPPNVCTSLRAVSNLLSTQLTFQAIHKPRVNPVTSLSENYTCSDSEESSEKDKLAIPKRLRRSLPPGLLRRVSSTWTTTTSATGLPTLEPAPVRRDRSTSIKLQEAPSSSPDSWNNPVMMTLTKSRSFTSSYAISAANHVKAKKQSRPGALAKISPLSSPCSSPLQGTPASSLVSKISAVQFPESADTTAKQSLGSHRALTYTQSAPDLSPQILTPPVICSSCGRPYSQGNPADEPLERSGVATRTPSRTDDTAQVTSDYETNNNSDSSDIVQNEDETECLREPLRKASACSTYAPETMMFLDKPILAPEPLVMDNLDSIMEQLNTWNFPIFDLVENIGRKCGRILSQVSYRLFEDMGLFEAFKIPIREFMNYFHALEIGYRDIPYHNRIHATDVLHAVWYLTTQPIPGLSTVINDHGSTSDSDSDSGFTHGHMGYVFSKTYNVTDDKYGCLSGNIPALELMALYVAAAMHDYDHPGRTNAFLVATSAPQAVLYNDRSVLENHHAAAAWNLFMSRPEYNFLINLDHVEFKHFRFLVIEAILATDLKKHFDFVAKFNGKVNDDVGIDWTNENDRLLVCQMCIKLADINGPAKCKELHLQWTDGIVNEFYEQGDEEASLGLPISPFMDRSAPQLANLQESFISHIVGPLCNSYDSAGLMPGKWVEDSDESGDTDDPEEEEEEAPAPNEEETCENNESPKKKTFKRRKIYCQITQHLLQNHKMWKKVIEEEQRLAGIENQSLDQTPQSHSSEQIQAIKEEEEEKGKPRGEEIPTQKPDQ
Chain of Beta-1 adrenergic receptor (P08588 whole entry): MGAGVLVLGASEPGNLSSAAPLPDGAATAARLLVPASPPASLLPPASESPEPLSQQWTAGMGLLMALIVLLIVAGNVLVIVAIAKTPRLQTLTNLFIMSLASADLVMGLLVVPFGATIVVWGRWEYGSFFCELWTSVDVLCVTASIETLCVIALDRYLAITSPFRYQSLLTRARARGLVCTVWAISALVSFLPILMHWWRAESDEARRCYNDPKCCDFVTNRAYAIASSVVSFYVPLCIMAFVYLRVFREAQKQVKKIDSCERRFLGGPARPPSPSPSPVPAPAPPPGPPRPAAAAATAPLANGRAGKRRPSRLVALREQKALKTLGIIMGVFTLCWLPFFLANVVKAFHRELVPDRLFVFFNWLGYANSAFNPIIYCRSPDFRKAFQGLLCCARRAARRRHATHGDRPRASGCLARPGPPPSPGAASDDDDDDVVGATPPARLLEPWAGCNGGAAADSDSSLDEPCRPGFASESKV

Structure (SMILES)	AC50 [1] [µM]	AC50 [2] [µM]	AC50 [3] [µM]	AC50 [4] [µM]	AC50 [5] [µM]	AC50 [6] [µM]	AC50 [7] [µM]
CN(C)CC/C=C1\c2ccccc2CSc2ccccc21 [DOTHIEPIN]	> 30	> 30	> 30	> 30	> 30	–	–
CN1CCN(C2=Nc3ccccc3Sc3ccc(Cl)cc32)CC1 [CLOTHIAPINE]	> 30	–	–	–	> 30	> 30	–
COc1cc2nc(N3CCN(C(=O)c4ccco4)CC3)nc(N)c2cc1OC [PRAZOSIN]	–	> 10	> 30	> 30	> 30	> 10	> 30
C=CCN1C[C@H](C(=O)N(CCCN(C)C)C(=O)NCC)C[C@@H]2c3cccc4[nH]cc(c34)C[C@H]21 [CABERGOLINE]	–	> 10	> 10	> 10	> 30	> 10	> 30
CCCC1O[C@@H]2C[C@H]3[C@@H]4CCC5=CC(=O)C=C[C@]5(C)[C@H]4[C@@H](O)C[C@]3(C)[C@]2(C(=O)CO)O1 (some centres undefined) [BUDESONIDE]	> 10	> 10	> 10	–	> 30	> 10	> 10
O=[N+]([O-])O[C@@H]1CO[C@H]2[C@@H]1OC[C@@H]2O [ISOSORBIDE MONONITRATE]	> 10	> 10	> 30	> 30	> 30	> 10	> 30
COc1ccccc1N1CCN(CC(O)COc2cccc3ccccc23)CC1 (centres undefined) [NAFTOPIDIL]	> 30	1.1	–	8.9	> 30	> 30	13
COC1=C(OC)C(=O)C(C/C=C(\C)CC/C=C(\C)CC/C=C(\C)CC/C=C(\C)CC/C=C(\C)CC/C=C(\C)CC/C=C(\C)CC/C=C(\C)CC/C=C(\C)CCC=C(C)C)=C(C)C1=O [UBIDECARENONE]	> 30	–	–	–	> 30	> 30	–
Cc1cc(C)c(NC(=O)CN(CC(=O)O)CC(=O)O)c(C)c1Br [MEBROFENIN]	> 30	–	–	–	> 30	> 30	–
CC[C@H]1CN2CCc3cc(OC)c(OC)cc3[C@@H]2C[C@@H]1C[C@H]1NCCc2cc(OC)c(OC)cc21 [EMETINE]	> 30	> 30	> 30	> 30	> 30	> 30	> 30
CCC(CC)(CC(=O)Nc1cccc(/C=C/c2nc(C3CCC3)cs2)c1)C(=O)O	–	14	> 30	–	–	–	> 30
Cc1oc(=O)oc1CN1CCN(c2cc3c(cc2F)c(=O)c(C(=O)O)c2n3C(C)S2)CC1 (centres undefined) [PRULIFLOXACIN]	> 30	–	–	–	> 30	> 30	–
COc1ccc(C(=O)Nc2ccccc2CCC2CCCCN2C)cc1 (centres undefined) [ENCAINIDE]	> 10	> 10	> 30	> 30	> 30	> 10	> 30
CCCCCNC(=N)N/N=C/c1c[nH]c2ccc(OC)cc12 [TEGASEROD]	> 30	7.02	> 30	> 30	> 30	> 30	> 30
CC[C@@H](C(N)=O)N1CCCC1=O	> 30	> 30	> 30	–	> 30	> 30	> 30
O=[N+]([O-])c1cn2c(n1)OC[C@@H](OCc1ccc(OC(F)(F)F)cc1)C2 [PRETOMANID]	–	> 10	> 30	–	> 10	–	> 30
CN(C)CCC=C1c2ccccc2C=Cc2ccccc21 [CYCLOBENZAPRINE]	> 10	> 10	> 30	> 30	> 30	> 10	> 30
CCOc1ccc(Cc2cc([C@@H]3O[C@H](CO)[C@@H](O)[C@H](O)[C@H]3O)ccc2Cl)cc1 [DAPAGLIFLOZIN]	–	> 10	> 30	> 30	> 30	> 10	> 30
CCOc1ccccc1OCC1CNCCO1 (centres undefined) [VILOXAZINE]	> 10	> 10	> 30	> 30	> 30	> 10	> 30
CN(C)CCc1c[nH]c2ccc(C[C@H]3COC(=O)N3)cc12 [ZOLMITRIPTAN]	> 30	> 30	> 30	> 30	> 30	> 30	> 30
